Results as given in the NIST ThermoML archive (doi:10.1021/je700671t).

Experiments:
[1] = xn = mol fraction of the nth substance listed; conditions: 101 kPa, Liquid, x2 = 0; for viscosity: Capillary tube (Ostwald / Ubbelohde) method
[2] = 101 kPa, Liquid; for viscosity: Capillary tube (Ostwald / Ubbelohde) method

O [water] + CN(C)C=O
[1]
Conditions	mass density [kg/m3]	viscosity [mPa·s]
283.15 K	999.7	–
293.15 K	–	1.026
303.15 K	–	0.817
313.15 K	–	0.67
323.15 K	988.03	0.561
328.15 K	985.69	–
333.15 K	983.19	0.48
338.15 K	980.55	–
343.15 K	977.76	0.419
348.15 K	974.84	–
353.15 K	971.79	0.371

CN(C)C=O [dimethylformamide]
[2]
Conditions	mass density [kg/m3]	viscosity [mPa·s]
283.15 K	958.96	–
288.15 K	954.17	–
293.15 K	949.39	0.864
298.15 K	944.6	–
303.15 K	939.83	0.766
308.15 K	935.05	–
313.15 K	930.27	0.684
318.15 K	925.49	–
323.15 K	920.71	0.617
328.15 K	915.92	–
333.15 K	911.13	0.559
338.15 K	906.32	–
343.15 K	901.51	0.51
348.15 K	896.69	–
353.15 K	891.86	0.47
